“And” between values parts separate entries of the source, which are not always exact repeats. Identical values can stand only once. Like-named read-outs stand apart in the source and are kept apart here.
Key:
Format in all cases: cell-based
[1] = test system: EOC 13.31 microglia cells; assay: NO release inhibition in LPS/IFNγ stimulated microglia, concurrent treatment, Griess reaction at 24 hours (Example 6); details: for NO release, Avg / inhibition at 50 µM: 24 hours; for inhibition at 50 µM: Microglia
Description: The purpose of this experiment was to screen compounds 3, 4, 21, 26, 51, 52, 66, and 78 for their ability to inhibit Nitric oxide release from microglia. […] EOC 13.31 microglia cells were plated into 96 well plates for 24 hours. Confluent cells were treated with 50 μM of the bis- and tris-dihydroxyaryl compounds either with or without stimulation at 1 pg/ml LPS, and 1 ng/ml IFNγ. NO release was measured at 24 hours using the Griess reaction which is a spectrophotometric measure of NO release (reagents from Promega).

[2] = test system: Microglial cells; assay: Dose response inhibition of NO release from microglia, 0.75-200 μM (Example 8)
Description: This experiment was designed to determine dose response inhibition of NO release from microglia by bis- and tris-dihydroxyaryl compounds when stimulated with LPS/IFNγ. […] This experiment is designed to determine a dose response for various bis- and tris-dihydroxyaryl compounds. Microglial cells were plated into 96 well plates at 1×10^5 cells/ml. […] The doses tested were: 0.75 μM, 1.56 μM, 3.125 μM, 6.25 μM, 12.5 μM, 25 μM, 50 μM, 100 μM and 200 μM. Nitric oxide release was measured after 48 hours using the Griess reaction.

[3] = test system: EOC 13.31 microglia cells; assay: Inhibition of NO release from microglia following 24 hours pretreatment (Example 10); details: for inhibition at 50 µM: Microglia
Outline: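 Confluent EOC 13.31 cells pretreated 24 hours with 50 μM compound (from 10 mM DMSO stock), then stimulated with 10 μg/ml LPS plus 10 ng/ml IFNγ without media change. After a further 48 hours, NO release was measured by Griess Reaction.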

[4] = test system: microglia; assay: Ranking of NO release inhibition (Example 12); details: Microglia, ranking table
Source text: The bis- and tris-dihydroxyaryl compounds were ranked in order of effectiveness for the inhibition of NO release as set out in Table 8.

[5] = dose 0.75 μM, 48 hours, single replicates
[6] = dose 1.56 μM, 48 hours, single replicates
[7] = dose 3.125 μM, 48 hours, single replicates
[8] = dose 6.25 μM, 48 hours, single replicates
[9] = dose 12.5 μM, 48 hours, single replicates
[10] = dose 25 μM, 48 hours, single replicates
[11] = dose 50 μM, 48 hours, single replicates
[12] = dose 100 μM, 48 hours, single replicates
[13] = dose 200 μM, 48 hours, single replicates

For `Oc1ccc(CCc2ccc(O)c(O)c2)cc1O` [Compound 4, 1,2-bis(3,4-dihydroxyphenyl)ethane], the “inhibition of NO release, in words” value ([1]; 50 μM, LPS/IFNγ stimulated microglial cells) was “very effective inhibitors of NO release”, the “NO release, Avg” value ([1]; Compound + LPS/IFNγ, 50 μM) was 1.0417 µM and the “NO release, Avg” value ([1]; Compound Only (without LPS/IFNγ), 50 μM) was 0.8660 µM. The inhibition at 50 µM ([1]; Compound + LPS/IFNγ, read-out: % inhibition of NO release) was 94.4%, the inhibition at 50 µM ([1]; Table 2 summary, LPS/IFNγ, read-out: % Inhibition (summary of inhibition of NO release)) was 94.4% and the inhibition at 0.75 µM ([2]; Microglia, 48 h, dose 0.75 μM) was -11.1%. The inhibition at 1.56 µM ([2]; Microglia, 48 h, dose 1.56 μM) was 2.52%, the inhibition at 3.125 µM ([2]; Microglia, 48 h, dose 3.125 μM) was 6.14% and the inhibition at 6.25 µM ([2]; Microglia, 48 h, dose 6.25 μM, 48 hours, read-out: Avg % Inhibition) was 36.2%. It also gave an inhibition at 6.25 µM ([2]; Microglia, 48 h, dose 6.25 μM, 48 hours, single replicates, read-out: % inhibition) of 42.2%, an inhibition at 12.5 µM ([2]; Microglia, 48 h, dose 12.5 μM, 48 hours, read-out: Avg % Inhibition) of 82.7% and an inhibition at 12.5 µM ([2]; Microglia, 48 h, dose 12.5 μM, 48 hours, single replicates, read-out: % inhibition) of 85.1%. The inhibition at 25 µM ([2]; Microglia, 48 h, dose 25 μM, 48 hours, read-out: Avg % Inhibition) was 86.2%, the inhibition at 25 µM ([2]; Microglia, 48 h, dose 25 μM, 48 hours, single replicates, read-out: % inhibition) was 85.6% and the inhibition at 50 µM ([2]; Microglia, 48 h, dose 50 μM, 48 hours, read-out: Avg % Inhibition) was 86.5%. For the same compound, the inhibition at 50 µM ([2]; Microglia, 48 h, dose 50 μM, 48 hours, single replicates, read-out: % inhibition) was 87.2%, the inhibition at 100 µM ([2]; Microglia, 48 h, dose 100 μM, 48 hours, read-out: Avg % Inhibition) was 82.2% and the inhibition at 100 µM ([2]; Microglia, 48 h, dose 100 μM, 48 hours, single replicates, read-out: % inhibition) was 83%. For the same compound, the inhibition at 200 µM ([2]; Microglia, 48 h, dose 200 μM, 48 hours, read-out: Avg % Inhibition) was 75%, the inhibition at 200 µM ([2]; Microglia, 48 h, dose 200 μM, 48 hours, single replicates, read-out: % inhibition) was 77.4% and the “μM NO release Avg” value ([2]; dose 0.75 μM, 48 hours) was 27.011 µM. For the same compound, the “% inhibition” value [2, 5] was −8.45% and −9.87% and −14.83%, the “OD values (printed under head μM NO release)” value [2, 5] was 0.229 and 0.22 and 0.222 and the “μM NO release” value [2, 5] was 27.931 µM and 26.379 µM and 26.724 µM. The “μM NO release Avg” value ([2]; dose 1.56 μM, 48 hours) was 23.709 µM, the “% inhibition” value [2, 6] was 6.85% and 4.93% and −4.20% and the “OD values (printed under head μM NO release)” value [2, 6] was 0.214 and 0.197 and 0.2. The “μM NO release” value [2, 6] was 25.345 µM and 22.656 µM and 23.125 µM, the “μM NO release Avg” value ([2]; dose 3.125 μM, 48 hours) was 22.829 µM and the “% inhibition” value [2, 7] was 12.63% and 10.71% and −4.91%. The “OD values (printed under head μM NO release)” value [2, 7] was 0.215 and 0.188 and 0.191, the “μM NO release” value [2, 7] was 25.517 µM and 21.250 µM and 21.719 µM and the “μM NO release Avg” value ([2]; dose 6.25 μM, 48 hours) was 15.521 µM. The “% inhibition” value [2, 8] was 40.26% and 26.12%, the “OD values (printed under head μM NO release)” value [2, 8] was 0.167 and 0.142 and 0.145 and the “μM NO release” value [2, 8] was 17.969 µM and 14.063 µM and 14.531 µM. For the same compound, the μM NO release Avg ([2]; dose 12.5 μM, 48 hours) was 4.21 µM, the “% inhibition” value [2, 9] was 84.07% and 78.93% and the “OD values (printed under head μM NO release)” value [2, 9] was 0.083 and 0.071 and 0.073. For the same compound, the “μM NO release” value [2, 9] was 5.125 µM and 3.625 µM and 3.875 µM, the “μM NO release Avg” value ([2]; dose 25 μM, 48 hours) was 3.357 µM and the “% inhibition” value [2, 10] was 87.89%. The “OD values (printed under head μM NO release)” value [2, 10] was 0.071 and 0.07 and 0.064, the “μM NO release” value [2, 10] was 3.625 µM and 3.500 µM and 2.947 µM and the “μM NO release Avg” value ([2]; dose 50 μM, 48 hours) was 3.292 µM. For the same compound, the “OD values (printed under head μM NO release)” value [2, 11] was 0.071 and 0.067 (2×), the “μM NO release” value [2, 11] was 3.625 μM and 3.125 μM (2×) and the “μM NO release Avg” value ([2]; dose 100 μM, 48 hours) was 4.333 µM. For the same compound, the “% inhibition” value [2, 12] was 82.01% and 81.50%, the “OD values (printed under head μM NO release)” value [2, 12] was 0.078 and 0.075 and 0.077 and the “μM NO release” value [2, 12] was 4.500 µM and 4.125 µM and 4.375 µM. The “Avg % Inhibition” value ([2]; dose 200 μM, 48 hours) was 75.332%, the “μM NO release Avg” value ([2]; dose 200 μM, 48 hours) was 6.000 µM and the “% inhibition” value [2, 13] was 74.30%. For the same compound, the “OD values (printed under head μM NO release)” value [2, 13] was 0.092 (2×) and 0.086, the “μM NO release” value [2, 13] was 6.250 μM (2×) and 5.500 μM and the “inhibition of NO release, in words” value ([2]; dose response 0.75-200 μM) was “effective inhibitors of NO release”. For the same compound, the “μM NO release” value ([3]; 50 uM pretreatment 24 hours, then LPS/IFNγ 48 hours, single replicates) was 0.000 µM, the inhibition at 50 µM ([3]; 50 uM pretreatment 24 hours, then LPS/IFNγ 48 hours, read-out: Avg % Inhibition) was 100% and the inhibition at 50 µM ([3]; 50 uM pretreatment 24 hours, then LPS/IFNγ 48 hours, single replicates, read-out: % inhibition) was 100%. For the same compound, the inhibition at 50 µM ([3]; 50 μM pretreatment, read-out: inhibition of NO release following pretreatment) was > 75% and the inhibition at 50 µM [4] was 94%.

From US20070208087A1, “Compounds, compositions and methods for the treatment of inflammatory diseases” (priority 2001, published 2007)
